From patent publication US9834534B2, “Neuraminidase inhibitor compounds, compositions and methods for the use thereof in anti-viral treatments” (THE UNIVERSITY OF BRITISH COLUMBIA, priority 2009, dated 2017)

Columns and labels:
H1N1 OsR = H1N1 OsR (Influenza A virus (H1N1), UniProt Q289M4)
H1N1 = H1N1 (Influenza A virus (H1N1), UniProt Q289M4)
Sequence of H1N1 (Q289M4 whole entry, looked up): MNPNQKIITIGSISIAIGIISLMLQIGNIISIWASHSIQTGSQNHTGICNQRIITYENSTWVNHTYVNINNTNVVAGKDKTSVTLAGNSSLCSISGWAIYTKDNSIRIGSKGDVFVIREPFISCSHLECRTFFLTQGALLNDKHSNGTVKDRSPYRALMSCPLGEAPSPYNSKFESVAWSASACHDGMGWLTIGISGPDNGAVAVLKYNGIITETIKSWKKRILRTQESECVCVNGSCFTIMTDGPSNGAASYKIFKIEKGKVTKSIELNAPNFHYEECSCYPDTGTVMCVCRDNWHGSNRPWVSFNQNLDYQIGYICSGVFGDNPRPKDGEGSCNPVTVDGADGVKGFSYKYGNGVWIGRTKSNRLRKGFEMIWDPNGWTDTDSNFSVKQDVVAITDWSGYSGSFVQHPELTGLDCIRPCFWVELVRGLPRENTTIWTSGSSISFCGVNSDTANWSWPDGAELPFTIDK

Sequence of H1N1 OsR (Q289M4 whole entry, looked up): as above

CC(=O)NC1C(N)C(F)C(F)(C(=O)O)OC1[C@H](O)[C@H](O)CO (stereo in doubt) [Compound 2eq3eq4NH2, 5-Acetamido-2,4,5-trideoxy-4-amino-2α, 3β-difluoro-α-D-erythro-L-gluco-nonulo-pyranosonate]
Half life for reactivation (H1N1 OsR): 2 h
ki (H1N1 OsR; pH 7.6): 4.7 ± 0.1 min⁻¹
Half life for reactivation (H1N1): 4 h
